Assay results: PMC8146505, “Enantioselective Interactions of Anti-Infective 8-Aminoquinoline Therapeutics with Human Monoamine Oxidases A and B” (Pharmaceuticals, 2021)

Experiments:
recombinant human MAO-B = target: T1, recombinant human MAO-B (Homo sapiens, UniProt P27338); test: In vitro MAO inhibition assay (kynuramine oxidative deamination), IC50; assay type: biochemical; conditions: rhMAO-B, kynuramine 50 μM, steady-state, mean ± SD
T1 construct: purchased BD Biosciences (Bedford, MA, USA)
T1 sequence (P27338 1-520): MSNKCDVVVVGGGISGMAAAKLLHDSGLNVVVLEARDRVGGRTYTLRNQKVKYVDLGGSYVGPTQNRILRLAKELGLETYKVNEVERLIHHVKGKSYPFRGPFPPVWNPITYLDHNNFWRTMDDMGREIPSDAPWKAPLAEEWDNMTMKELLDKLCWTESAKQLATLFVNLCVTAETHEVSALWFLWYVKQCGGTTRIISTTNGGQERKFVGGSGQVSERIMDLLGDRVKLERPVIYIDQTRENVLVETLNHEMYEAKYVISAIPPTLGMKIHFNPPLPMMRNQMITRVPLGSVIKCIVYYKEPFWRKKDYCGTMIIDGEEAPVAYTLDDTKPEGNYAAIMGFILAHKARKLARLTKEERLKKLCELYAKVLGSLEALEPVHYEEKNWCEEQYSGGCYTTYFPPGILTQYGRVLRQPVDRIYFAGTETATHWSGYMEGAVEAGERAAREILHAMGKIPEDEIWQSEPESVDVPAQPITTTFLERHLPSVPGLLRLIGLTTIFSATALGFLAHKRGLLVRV
Experimental: (§1) A fixed concentration of kynuramine substrate and varying concentrations of the test compounds were used to determine the IC50 values. Kynuramine concentrations for MAO-A and -B assays were 80 μM and 50 μM, respectively. The concentrations of PQ and NPC1161 enantiomers varied from 0.1 μM to 200 μM, for the rhMAO-A and -B enzyme activity inhibition. The test compounds were dissolved in DMSO, diluted in the buffer solution just before the assay, and pre-incubated with the enzyme (MAO-A (5 μg/mL) or -B (12.5 μg/mL)) for 10 min at 37 °C. […] The enzymatic reactions were initiated by the addition of the substrate (kynuramine 80 and 50 μM, for MAO-A and -B, respectively) and incubated for 20 min at 37 °C. The enzyme reactions were terminated by the addition of 78 μL of 2N NaOH to each well. The formation of 4-hydroxyquinoline (the enzyme reaction end product) was recorded fluorometrically on a SpectraMax M5 fluorescence plate reader (Molecular Devices, Sunnyvale, CA, USA) with 320 nm excitation and 380 nm emission wavelengths, using the Soft MaxPro-6 program. The inhibition of enzyme activity was calculated in terms of product formation as a percentage of corresponding controls (enzyme–substrate reaction without inhibitors). Assay controls, to define the interference of the test compounds with the fluorescence measurements, were set up simultaneously, and the enzyme or substrate was added after stopping the reaction.
(§2) The enzyme assays were performed at a steady-state fixed concentration of the substrate kynuramine (80 μM for MAO-A and 50 μM for MAO-B) and different concentrations of the test compounds (PQ and NPC1161 enantiomers). The dose–response enzyme-inhibition curves were generated using Microsoft® Excel (Figure 2), and the IC50 values were computed with XLfit®.

recombinant human MAO-A = target: T2, recombinant human MAO-A (Homo sapiens, UniProt P21397); test: as above; assay type: biochemical; conditions: rhMAO-A, kynuramine 80 μM, steady-state, mean ± SD
T2 construct: purchased BD Biosciences (Bedford, MA, USA)
T2 sequence (P21397 1-527): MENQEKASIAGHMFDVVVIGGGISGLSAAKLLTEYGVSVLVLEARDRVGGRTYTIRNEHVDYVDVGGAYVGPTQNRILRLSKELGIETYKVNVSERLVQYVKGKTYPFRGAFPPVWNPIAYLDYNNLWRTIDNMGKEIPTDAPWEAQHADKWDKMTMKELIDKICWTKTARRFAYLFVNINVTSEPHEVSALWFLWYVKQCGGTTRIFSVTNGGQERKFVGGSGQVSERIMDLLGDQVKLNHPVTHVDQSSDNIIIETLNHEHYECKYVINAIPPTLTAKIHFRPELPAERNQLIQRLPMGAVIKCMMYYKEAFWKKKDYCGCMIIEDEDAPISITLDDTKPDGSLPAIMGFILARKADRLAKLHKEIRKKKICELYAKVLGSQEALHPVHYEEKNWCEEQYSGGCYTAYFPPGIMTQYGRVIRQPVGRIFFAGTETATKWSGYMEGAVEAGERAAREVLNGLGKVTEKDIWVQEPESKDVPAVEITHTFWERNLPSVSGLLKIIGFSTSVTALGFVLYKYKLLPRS
Experimental: as §1, §2

| Compound | IC50 (recombinant human MAO-B) | IC50 (recombinant human MAO-A) |
| --- | --- | --- |
| COc1cc(N[C@@H](C)CCCN)c2ncccc2c1 [(S)-(+)-Primaquine] | 170 ± 15.3 µM |  |
| COc1cc(N[C@H](C)CCCN)c2ncccc2c1 [(R)-(−)-Primaquine] | 117 ± 8.82 µM |  |
| COc1cc(NC(C)CCCN)c2ncccc2c1 (racemic) [(RS)-(±)-Primaquine, Primaquine] | 107 ± 1.18 µM |  |
| COc1cc(C)c2c(Oc3cccc(C(F)(F)F)c3)c(OC)cc(NC(C)CCCN)c2n1 (stereo not drawn) [Tafenoquine, 4-N-[2,6-dimethoxy-4-methyl-5-[3-(trifluoromethyl)phenoxy]quinolin-8-yl]pentane-1,4-diamine] | 0.95 ± 0.07 µM | 2.7 ± 0.14 µM |
| COc1ccc2c(c1)[nH]c1c(C)nccc12 [Harmine] | 53.1 ± 3.91 µM |  |
